Several values for one entry are separate records, joined by “and”; a condition that tells them apart may be missing. Equal values may be shown once. Read-outs that look alike come from different tables or passages of the source.
How the values were obtained:
[1] = system: healthy volunteers
Experimental: (§1) These studies were approved by the Human Research Committee at the Massachusetts General Hospital. All subjects provided informed consent and were American Society of Anesthesiology Physical Status I with Mallampati Class I airway anatomy. […] We administered a urine pregnancy test for each female subject to confirm that they were not pregnant. Before the start of the study, we required subjects to take nothing by mouth for at least 8 hours. […] We maintained each target effect-site concentration level for 14 min. […] Volunteers were instructed to close their eyes throughout the study to avoid eye-blink artifacts in the electroencephalogram. Volunteers were presented with auditory stimuli during the study and asked to respond by button presses to assess the level of conscious behavior. […] Verbal stimuli consisted either of the subject's name or a word randomized with an equal number of name or word stimuli at each level. The click train was delivered binaurally, with 40-Hz clicks in the left ear and 84-Hz clicks in the right ear. Subjects were instructed to press one button if they heard their name and to press the other button if they heard any other stimulus. Stimuli were recorded at a sampling rate of 44.1 kHz and were presented using Presentation software (Neurobehavioral Systems, Inc., Berkeley, Calif.) with ear-insert headphones (ER2; Etymotic Research, Elk Grove Village, Ill.) at ˜81 decibels peak sound pressure level. Button-press stimuli were recorded using a custom-built computer mouse with straps fitted to hold the first and second fingers in place over the mouse buttons. The mouse was also lightly strapped to the subject's hand using tape and an arterial line board to ensure that responses could be recorded accurately.
(§2) An anti-aliasing filter was applied and the EEG data was downsampled to 250 Hz before analysis. EEG signals were re-montaged to a nearest-neighbor Laplacian reference, using distances along the scalp surface to weigh neighboring electrode contributions.
(§3) First, 2-minute EEG segments were selected from all subjects during the awake, eyes closed baseline. Eye closure facilitates distinguishing between normal awake, eyes-closed occipital alpha oscillations and the frontal alpha oscillations associated with anesthesia induced altered arousal.
(§4) Electroencephalogram data segments were selected based on the behavioral response.
(§5) For each volunteer subject, TM electroencephalogram epochs were chosen that occurred within the first 2-minutes of the onset of this pattern. […] For each volunteer subject, PM electroencephalogram epochs were chosen that occurred within the first 2-minutes of the onset of this pattern.
The power spectral density, also referred to as the power spectrum or spectrum, quantifies the frequency distribution of energy or power within a signal. The spectrogram is a time-varying version of the spectrum. […] In these spectrograms, frequencies are arranged along the y-axis, and time along the x-axis, and power is indicated by color on a decibel (dB) scale. […] Spectra and spectrograms were computed using the multitaper method, implemented in the Chronux toolbox.
Group-level spectrograms were computed by taking the median across volunteers.

[2] = system: healthy volunteers; remark: listed apart in the source
Experimental: as §1, §2, §3, §4, §5
The coherence quantifies the degree of correlation between two signals at a given frequency. […] The coherence Cxy(f) function between two signals x and y is defined as:
[formula] where Sxy(f) is the cross-spectrum between the signals x(t) and y(t), Sxx(f) is the power spectrum of the signal x(t) and Syy(f) is the power spectrum of the signal y(t). Similar to the spectrum and spectrogram, the coherence can be estimated as a time-varying quantity called the coherogram.

[3] = system: healthy volunteers; remark: listed apart in the source
Experimental: as §1, §4, §5

[4] = system: patients undergoing light sedation with dexmedetomidine, sedation with propofol and general anesthesia with propofol; conditions: intraoperative frontal EEG
[5] = Plethysmography and blood gas experiments; conditions: in vivo
Text: For example, in accordance with one aspect of the present disclosure, methylphenidate (MPH) can be used as an inhibitor of dopamine and norepinephrine reuptake transporters and actively induces emergence from isoflurane general anesthesia. MPH can be used to restore consciousness, induce electroencephalogram changes consistent with arousal, and increase respiratory drive. The behavioral and respiratory effects induced by methylphenidate can be inhibited by droperidol, supporting the evidence that methylphenidate induces arousal by activating a dopaminergic arousal pathway.

[6] = system: patients undergoing general anesthesia; assay: Intra-operative EEG during general anesthesia with sevoflurane as primary maintenance agent; format: in vivo, human
Experimental: In addition, to study the relationship between EEG dynamics in context of potential neural circuit mechanisms of an anesthetic vapor, intra-operative EEG were recorded from patients undergoing general anesthesia with sevoflurane as the primary maintenance agent, which is an ether derivative commonly used to maintain GA. […] Connectivity analysis was then performed on the EEG dynamics postulated to be involved in anesthesia-induce depression in consciousness. […] These observed similarities are consistent with present understanding of how EEG features relate to anesthesia-induced depression of consciousness, and provide a framework for further experimental studies on the neural circuit mechanisms of general anesthesia.

[7] = dexmedetomidine-induced unconsciousness
[8] = propofol-induced unconsciousness (PM)
[9] = propofol-induced unconsciousness (TM)
[10] = Propofol-induced unconsciousness (PM) epoch
[11] = Propofol-induced unconsciousness (TM) epoch

Cc1cccc([C@H](C)c2cnc[nH]2)c1C [dexmedetomidine]
slow oscillation power [1, 7]: −0.4 dB
frequency range where EEG power was larger than propofol-induced unconsciousness (TM) ([1]; dexmedetomidine-induced unconsciousness vs propofol TM, P<0.0005, TGTS): 0.7-10 Hz
frequency range of increased power in spectrogram compared to baseline ([1]; dexmedetomidine-induced unconsciousness, FIGS. 9A, 9B): 2-15 Hz
frequency range where EEG power was lower than baseline ([1]; dexmedetomidine-induced unconsciousness, beta/gamma, P<0.001, TGTS): 21.2-40 Hz
dex-spindle oscillation peak frequency (EEG power) ([1]; dexmedetomidine-induced unconsciousness, mean±std): 12.9 Hz and ~13 Hz
coherence peak frequency (dex-spindle) [2, 7]: 13.4 Hz and ~13 Hz
peak coherence (dex-spindle) [2, 7]: 0.78±0.08
slow oscillation coherence compared to the awake-state [2, 7]: non-significant decrease
frequency range where coherence was significantly larger than propofol-induced unconsciousness (PM) ([2]; dexmedetomidine-induced unconsciousness vs propofol PM, FIG. 15B, P<0.0005, TGTC): 12.9-15.4 Hz
frequency range of decrease in coherence on coherogram ([2]; dexmedetomidine-induced unconsciousness, FIG. 12B): 0.1-1 Hz
frequency range of significant differences in coherence vs baseline ([2]; dexmedetomidine-induced unconsciousness, FIG. 12C, P<0.001, TGTC): 2.4-18.8 Hz
frequency range of increase in coherence on coherogram ([2]; dexmedetomidine-induced unconsciousness, FIGS. 12A, 12B): 1-15 Hz
Behavioral State ([3]; Dexmedetomidine-induced unconsciousness epoch): Sedation
coherence of 0.1-1 Hz slow oscillations compared to propofol slow oscillations [4]: greater coherence
coherence of 8-12 Hz oscillations compared to propofol induced oscillations [4]: less coherence

COC(=O)C(c1ccccc1)C1CCCCN1 (stereo not drawn) [methylphenidate]
minute ventilation [5]: increases minute ventilation

CC(C)c1cccc(C(C)C)c1O [propofol]
propofol effect site concentrations over which the signature is stably maintained ([1]; PM pattern): 3 to 5 µg/mL
frequency range where PM oscillations were significantly larger than TM ([1]; propofol PM vs TM, FIG. 10F, P<0.0003, TGTS): 0.1-13.4 Hz
alpha oscillation peak frequency (EEG power) [1, 8]: 10.8 Hz
frontal alpha oscillation peak power [1, 8]: 1.1 dB
slow oscillation power [1, 8]: 13.2 dB
amplitude of slow oscillations, PM relative to TM and the baseline state ([1]; propofol-induced unconsciousness (PM) vs (TM)): approximately 6 fold
amplitude of alpha oscillations, propofol PM relative to dexmedetomidine spindle oscillations ([1]; propofol-induced unconsciousness (PM) vs dexmedetomidine): approximately 3.9 fold
frequency range where EEG power was significantly larger than dexmedetomidine-induced unconsciousness ([1]; propofol-induced unconsciousness (PM) vs dexmedetomidine, P<0.0005, TGTS): 0.1-40 Hz
frequency range where EEG power was significantly larger than baseline ([1]; propofol-induced unconsciousness (PM), FIG. 10E, P<0.0003, TGTS): 0.1-40 Hz
broad-band frequency range of increased power in spectrogram [1, 9]: 1-25 Hz
slow oscillation power [1, 9]: −2.5 dB
frequency range where EEG power was larger than dexmedetomidine-induced unconsciousness ([1]; propofol-induced unconsciousness (TM) vs dexmedetomidine, P<0.0005, TGTS): 14.9-40 Hz
propofol effect site concentrations over which the signature is stably maintained ([1]; trough max (TM) pattern): 1 to 2 µg/mL
time after loss of consciousness to which the trough-max pattern extends ([1]; trough-max pattern): ~10 min
time before loss of consciousness at which the trough-max pattern begins ([1]; trough-max pattern): ~20 min
alpha oscillation coherence peak frequency [2, 8]: 10.8 Hz
alpha oscillation peak coherence [2, 8]: 0.89±0.05
slow oscillation coherence compared to baseline [2, 8]: non-significant decrease
frequency range of decrease in coherence on coherogram ([2]; propofol-induced unconsciousness (PM), FIG. 13C): 0.1-1 Hz
frequency range of significant increase in coherence vs baseline ([2]; propofol-induced unconsciousness (PM), FIG. 13E, P<0.0003, TGTC): 3.9-15.1 Hz
alpha oscillation coherence peak frequency ([2]; propofol-induced unconsciousness (PM), listed as Propofol): ~10 Hz
broad frequency range of increase in coherence on coherogram [2, 9]: 1-25 Hz
frequency range where coherence was larger than dexmedetomidine-induced unconsciousness ([2]; propofol-induced unconsciousness (TM) vs dexmedetomidine, FIG. 15A, P<0.0005, TGTC): 17.3-25.9 Hz
frequency ranges where oscillations were coherent vs baseline ([2]; propofol-induced unconsciousness (TM), FIG. 13D, P<0.0003, TGTC): 10.7-15.4 Hz and 17.3-25.9 Hz
Behavioral State [3, 10]: General
Probability of Response to Verbal Stimuli (%) mean (±SD) [3, 10]: 0%
Behavioral State [3, 11]: Sedation
Probability of Response to Verbal Stimuli (%) mean (±SD) [3, 11]: 91.5 (15.4) %

FCOC(C(F)(F)F)C(F)(F)F [sevoflurane]
macroscopic EEG dynamics during GA induced unconsciousness [6]: closely resemble those of propofol

Reference: patent US11786132B2, “Systems and methods for predicting arousal to consciousness during general anesthesia and sedation” (The General Hospital Corporation, priority 2011, dated 2023)
